Results as given in paper PMC3024946, “Hydroxyproline-containing collagen analogs trigger the release and activation of collagen-sequestered proMMP-2 by competition with prodomain-derived peptide P33-42” (Fibrogenesis & Tissue Repair, 2011).
Entries after “also recorded” stand apart in the source; their conditions may differ.

Columns and labels:
proMMP-9 / CI [1] = target: T1, proMMP-9 / CI (Homo sapiens, UniProt P14780); test: SPR, competition of proMMP-9 binding to CI, nonactivating buffer
T1 construct: prodomain-containing proMMP-2 or proMMP-9; purchased Invitek
T1 sequence (P14780 20-707 limits assumed): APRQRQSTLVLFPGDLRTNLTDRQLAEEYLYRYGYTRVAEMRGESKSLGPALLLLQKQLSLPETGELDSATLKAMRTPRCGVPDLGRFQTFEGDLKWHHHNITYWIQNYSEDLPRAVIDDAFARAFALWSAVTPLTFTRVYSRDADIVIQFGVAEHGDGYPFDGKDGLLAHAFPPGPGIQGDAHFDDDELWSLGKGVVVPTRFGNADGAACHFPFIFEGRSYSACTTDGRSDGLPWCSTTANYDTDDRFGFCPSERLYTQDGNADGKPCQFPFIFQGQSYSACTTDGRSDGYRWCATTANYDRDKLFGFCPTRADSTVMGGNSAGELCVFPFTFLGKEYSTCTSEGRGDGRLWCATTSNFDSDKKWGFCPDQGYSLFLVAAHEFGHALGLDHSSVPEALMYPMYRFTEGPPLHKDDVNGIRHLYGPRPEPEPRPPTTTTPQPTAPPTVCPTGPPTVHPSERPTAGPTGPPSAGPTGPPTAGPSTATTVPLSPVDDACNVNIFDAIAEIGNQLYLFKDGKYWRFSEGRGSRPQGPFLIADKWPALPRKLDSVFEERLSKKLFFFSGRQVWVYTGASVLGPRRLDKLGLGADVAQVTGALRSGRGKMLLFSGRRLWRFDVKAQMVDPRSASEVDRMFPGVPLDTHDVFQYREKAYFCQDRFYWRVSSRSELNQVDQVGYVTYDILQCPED
Method: (§1) Sensor chip preparations and SPR measurements were performed using a BiacoreX device and the Bia-evaluation software (version 3.2; Biacore, Uppsala, Sweden). The pepsin-resistant triple-helical part of human fibrillar CI (100 μg/ml) in 10 mM acetate coupling buffer, pH 4.8, was immobilized to a dextran matrix-sensor chip at a flow rate of 5 μl/min, resulting in 5,500 resonance units from CI covalently linked via its primary amino groups. The control flow cell was prepared using the coupling buffer without CI. Surfaces were activated and blocked as described previously. […] The effects of (GPO)10, GAP, (POG)5, (GPP)10 and P33-42 on MMP-2 and MMP-9 binding to CI and their enzymatic activity were determined by adding the binding competitors to the (pro- and act)MMP-2 and MMP-9 solution in 10- to 150-fold molar excesses. Effects independent of MMP-2 and MMP-9 activity were monitored in the presence of Ro 28-2653 (1 μM) during SPR analysis. […] Kinetic parameters were analyzed using the 1:1 binding model with drifting baseline and subtraction of the control flow cell binding from sensorgrams obtained with immobilized CI. Binding constants (Kd) were calculated from the association (ka) and dissociation rates (kd) obtained from individual binding curves at different concentrations. […]

[2] = test system: Cy2-proMMP-2 bound to cirrhotic human liver tissue; test: Release / prevention of binding of Cy2-proMMP-2 in cirrhotic liver sections; details: 10-fold molar excess, fluorescence microscopy
Method: ProMMP-2 was labeled using the FluoroLink Cy2 Labeling Kit according to the manufacturer's instructions (Amersham Biosciences, Freiburg, Germany). Unbound fluorescent dye was removed by ultrafiltration (Nanosep, Lund, Sweden), and labeling success was monitored using a fluorescence microplate reader (λex/em, 489/506 nm). Serial cirrhotic human liver sections were covered with 1.2 μg/ml Cy2-proMMP-2 in 50 mM Tris·HCl, pH 7.4, containing 1 mM CaCl2 or with buffer alone, and were incubated in a dark humidified chamber for 24 h at 4°C. To study effects of (GPO)10, a 10-fold molar excess in relation to proMMP-2 was added to slides prior to or after Cy2-proMMP-2 binding. Slides were washed with PBS, air-dried, and rinsed with deionized water. Bound Cy2-proMMP-2 was detected by fluorescence microscopy (Olympus, Hamburg, Germany).

ProMMP-2 = test: DQ-gelatine degradation assay with MMP-2; format: biochemical, human; details: 5 h at 25°C
Method: Enzymatic activities of MMPs were studied spectrofluorimetrically by cleavage of fluorogenic substrates in MMP activity buffer within 2 to 5 h. For gelatinases 800 nM MCA-Pro-Leu-Gly-Leu-Dnp-Dap-Ala-Arg-NH2 (λex/em 328/393 nm; Bachem, Bubendorf, Switzerland) or 10 μg/ml DQ-gelatine were used, according to the method described by Knight et al. for collagenases 800 nM MCA-Pro-Cha-Gly-Nva-His-Ala-Dpa-NH2 (λex/em 280/360 nm; Anaspec, San José, CA, USA). In some experiments, proMMP-2 was fully activated in the presence of 1 mM APMA prior to the kinetic measurements. A quantity of 50 ng pro- or actMMP-2 alone or mixed with 10- to 150-fold molar excesses of (GPO)10, GAP, P33-42 or mixtures of (GPO)10 and P33-42, were added to CI-coated, BSA-coated (1 μg/well both) or uncoated wells containing 150 μl of the respective substrate solution. The peptide P33-42 was purchased from the Institute of Biochemistry (Humboldt-University, Berlin, Germany). The influence of CI on MMP-2 enzymatic activity against the quenched fluorescent substrate could be excluded. Background subtraction (measurement without MMPs) was applied to all curves. All experiments were performed with a fluorescence microplate reader (Molecular Devices, Sunnyvale, CA, USA) and black 96-well microtiter plates with a clear bottom (Greiner bio-one, Frickenhausen, Germany).

proMMP-2 / CI = target: T2, proMMP-2 / CI (Homo sapiens, UniProt P08253); test: SPR, competition of proMMP-2 binding to CI, MMP activity buffer; details: proMMP-2 (25-150 nM), 10-fold molar excess, no inhibitor
T2 construct: prodomain-containing proMMP-2 or proMMP-9; purchased Invitek
T2 sequence (P08253 30-660 limits assumed): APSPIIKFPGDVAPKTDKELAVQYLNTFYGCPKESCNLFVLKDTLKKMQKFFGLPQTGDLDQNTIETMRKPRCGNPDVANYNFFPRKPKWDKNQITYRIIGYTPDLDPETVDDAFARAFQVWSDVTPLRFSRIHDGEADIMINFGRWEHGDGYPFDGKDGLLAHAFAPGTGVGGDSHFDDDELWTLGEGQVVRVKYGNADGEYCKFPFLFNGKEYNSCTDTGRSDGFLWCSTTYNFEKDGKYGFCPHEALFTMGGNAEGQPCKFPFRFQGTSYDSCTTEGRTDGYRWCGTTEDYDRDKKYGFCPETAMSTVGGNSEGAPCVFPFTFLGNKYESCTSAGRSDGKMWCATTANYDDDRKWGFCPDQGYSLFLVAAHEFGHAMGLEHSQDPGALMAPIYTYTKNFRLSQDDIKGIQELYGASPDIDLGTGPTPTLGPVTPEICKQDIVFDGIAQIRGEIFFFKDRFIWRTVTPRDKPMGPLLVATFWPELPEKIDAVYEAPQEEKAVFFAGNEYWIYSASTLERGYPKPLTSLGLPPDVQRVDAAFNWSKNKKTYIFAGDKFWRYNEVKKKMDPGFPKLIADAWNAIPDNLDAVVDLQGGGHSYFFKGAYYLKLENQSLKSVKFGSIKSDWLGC
Method: as §1

actMMP-9 / CI = target: T3, actMMP-9 / CI (Homo sapiens, UniProt P14780); test: SPR, competition of actMMP-9 binding to CI, nonactivating buffer; details: actMMP-9 (100 nM) binding to CI with 10× (GPO)10; PBS, 0.05% Tween 20
T3 construct: purchased Invitek
T3 sequence (P14780 107-707 limits assumed): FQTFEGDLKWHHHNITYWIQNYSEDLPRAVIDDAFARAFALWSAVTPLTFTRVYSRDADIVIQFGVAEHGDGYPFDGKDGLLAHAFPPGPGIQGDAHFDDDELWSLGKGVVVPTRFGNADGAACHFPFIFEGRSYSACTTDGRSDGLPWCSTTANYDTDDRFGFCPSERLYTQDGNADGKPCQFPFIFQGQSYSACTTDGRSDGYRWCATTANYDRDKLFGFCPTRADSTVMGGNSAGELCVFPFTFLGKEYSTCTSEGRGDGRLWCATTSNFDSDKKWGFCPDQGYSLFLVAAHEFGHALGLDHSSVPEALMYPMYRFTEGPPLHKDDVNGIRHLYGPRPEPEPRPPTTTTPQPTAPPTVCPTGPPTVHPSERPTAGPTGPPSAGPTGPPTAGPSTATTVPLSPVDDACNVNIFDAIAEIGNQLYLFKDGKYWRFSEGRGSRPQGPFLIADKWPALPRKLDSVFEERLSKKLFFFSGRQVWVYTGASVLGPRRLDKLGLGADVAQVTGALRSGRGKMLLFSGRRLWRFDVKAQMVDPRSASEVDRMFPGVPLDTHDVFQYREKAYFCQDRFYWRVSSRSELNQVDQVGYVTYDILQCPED
Method: as §1

proMMP-9 / CI [3] = target: T1, proMMP-9 / CI; test: SPR, competition of proMMP-9 binding to CI, MMP activity buffer; details: proMMP-9 (25-150 nM), 10-fold molar excess
Method: as §1

## H-Gly-Cys-Hyp-(Gly-Pro-Hyp)10-Gly-Cys-Hyp-Gly-NH2 [(GPO)10, triple-helical Hyp-containing collagen analog]
proMMP-9 / CI [1]; proMMP-9 (100 nM) binding to CI with 10× (GPO)10, PBS, 0.05% Tween 20
  Off rate: 0.22 s⁻¹
proMMP-9 / CI [1]; proMMP-9, 10-fold molar excess
  effect on binding to CI: more pronounced effects
[2]; coincubation
  prevention of binding of Cy2-proMMP-2: prevented gelatinase binding
[2]; subsequent treatment
  release of bound Cy2-proMMP-2: promoted effective release of the sequestered enzyme
ProMMP-2; 50- to 100-fold molar excesses
  DQ-gelatine cleavage by proMMP-2: significantly enhanced
ProMMP-2; 150-fold molar excess
  DQ-gelatine cleavage by proMMP-2: shift from an active MMP-2 to an enzymatically blocked enzyme; also recorded: reduction of MMP-2 gelatinolytic activity
proMMP-2 / CI
  effect on SPR signal on CI: reduction in resonance units below baseline levels
actMMP-9 / CI
  Off rate: 0.61 s⁻¹
proMMP-9 / CI [3]
  effect on binding to CI: abolished binding of proMMP-9 to CI
